In patent publication US11840686B2, “Modulation of prekallikrein (PKK) expression” (Ionis Pharmaceuticals, Inc., priority 2013, dated 2023):
Strand notation (5' to 3'): a small letter for the sugar, then the base; units joined by * are phosphorothioate-linked, units joined directly phosphodiester-linked; [ ] holds rarer units or linkages, { } end groups; capitals alone tell only the bases. e = 2'-O-(2-methoxyethyl) (MOE); k = constrained ethyl (cEt); [5mC] = 5-methylcytosine; d = 2'-deoxy (DNA)

Test system: human PKK mRNA
Assay: Antisense inhibition of human PKK mRNA in HepaRG cells, 1,000 nM, MOE/deoxy/cEt oligonucleotides (Example 3)
Format: cell-based
In short: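 HepaRG cells at 20,000 per well electroporated with 1,000 nM 16-mer MOE/cEt/deoxy gapmers (phosphorothioate, 5-methylcytosine). After about 24 h, PKK mRNA measured by qRT-PCR with primer probe set RTS3454, normalized to RIBOGREEN total RNA. Reported as percent inhibition versus untreated cells.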

[1] = Table 21 experiment, HepaRG cells, electroporation with 1,000 nM antisense oligonucleotide, approx. 24 hours, PKK mRNA by RT-PCR (RTS3454), relative to untreated control cells
[2] = HepaRG cells, electroporation with 1,000 nM antisense oligonucleotide, approximately 24 hours, primer probe set RTS3454, relative to untreated control cells, experiment of Table 24
[3] = PKK mRNA, HepaRG cells, 1,000 nM antisense oligonucleotide, Table 31
[4] = Table 19, HepaRG cells, electroporation with 1,000 nM antisense oligonucleotide, approximately 24 hours, PKK mRNA by RT-PCR (RTS3454), relative to untreated control cells
[5] = HepaRG cells, 1,000 nM antisense oligonucleotide, Table 29
[6] = HepaRG cells, electroporation with 1,000 nM antisense oligonucleotide, approx. 24 hours, PKK mRNA by RT-PCR (RTS3454), relative to untreated control cells, Table 25 experiment
[7] = Table 28, HepaRG cells, 1,000 nM antisense oligonucleotide, human PKK mRNA
[8] = HepaRG cells, electroporation with 1,000 nM antisense oligonucleotide, approximately 24 hours, primer probe set RTS3454, relative to untreated control cells, experiment of Table 23
[9] = Table 30, human PKK mRNA, HepaRG cells, 1,000 nM antisense oligonucleotide
[10] = Table 22 experiment, HepaRG cells, electroporation with 1,000 nM antisense oligonucleotide, approx. 24 hours, PKK mRNA by RT-PCR (RTS3454), relative to untreated control cells
[11] = HepaRG cells, electroporation with 1,000 nM antisense oligonucleotide, approx. 24 hours, PKK mRNA by RT-PCR (RTS3454), relative to untreated control cells, Table 26 experiment
[12] = Table 20, HepaRG cells, electroporation with 1,000 nM antisense oligonucleotide, approximately 24 hours, PKK mRNA by RT-PCR (RTS3454), relative to untreated control cells

547805 (eG*eG*kG*dT*dG*dT*dA*d[5mC]*dA*dT*dG*dG*dA*kA*kG*e[5mC]; antisense) [compound 547805]
% inhibition [1]: 54%

548029 (eT*eG*kG*dT*dG*dT*d[5mC]*d[5mC]*dT*dA*dT*dG*dA*kG*kT*eG; antisense) [compound 548029]
% inhibition [2]: 12%

548679 (antisense eT*e[5mC]*kT*d[5mC]*dA*dA*dG*d[5mC]*dA*dG*d[5mC]*d[5mC]*dT*kA*kT*eT) [compound 548679]
% inhibition [3]: 0%

548124 (antisense eT*eA*kG*dA*d[5mC]*dT*d[5mC]*dT*dG*dG*dA*d[5mC]*dT*kG*k[5mC]*eT) [compound 548124]
% inhibition [4]: 51%

548550 (antisense e[5mC]*e[5mC]*kG*dG*d[5mC]*d[5mC]*dT*dG*dG*dA*dT*dA*d[5mC]*kA*kG*e[5mC]) [compound 548550]
% inhibition [5]: 0%

547763 (antisense eG*eG*kT*dG*dA*dG*dT*d[5mC]*dT*d[5mC]*dT*dT*dG*kT*k[5mC]*eA) [compound 547763]
% inhibition [1]: 66%

548190 (eT*eA*kT*dT*d[5mC]*d[5mC]*dA*dT*dG*dA*dA*d[5mC]*dA*kT*k[5mC]*e[5mC]; antisense) [compound 548190]
% inhibition [6]: 43%

548535 (antisense eG*eA*kG*dT*d[5mC]*dT*dT*dT*d[5mC]*d[5mC]*dA*dA*dT*k[5mC]*k[5mC]*eT) [compound 548535]
% inhibition [7]: 13%

547924 (eG*eT*k[5mC]*d[5mC]*dG*dA*d[5mC]*dA*d[5mC]*dA*d[5mC]*dA*dA*kA*kA*eG; antisense) [compound 547924]
% inhibition [8]: 53%

548440 (antisense e[5mC]*e[5mC]*kT*dA*dT*dA*dA*d[5mC]*dA*dG*dT*dA*dT*k[5mC]*kA*e[5mC]) [compound 548440]
% inhibition [9]: 32%

548091 (antisense eT*eG*k[5mC]*dA*dA*dA*d[5mC]*dT*dA*dA*dG*dG*dG*kA*k[5mC]*e[5mC]) [compound 548091]
% inhibition [4]: 62%

548527 (antisense eT*eG*kT*dT*dT*d[5mC]*dA*dA*dG*dT*dG*d[5mC]*d[5mC]*kA*kG*eA) [compound 548527]
% inhibition [7]: 50%

547830 (eG*e[5mC]*kA*d[5mC]*d[5mC]*dT*dG*dT*dT*d[5mC]*dG*dA*dT*kG*kT*eA; antisense) [compound 547830]
% inhibition [1]: 74%

548661 (antisense eA*e[5mC]*kG*dA*d[5mC]*d[5mC]*d[5mC]*dA*d[5mC]*dT*d[5mC]*d[5mC]*dA*kT*kG*eT) [compound 548661]
% inhibition [3]: 18%

547751 (eT*eG*kA*dA*d[5mC]*dG*dG*dT*d[5mC]*dT*dT*d[5mC]*dA*kA*kG*e[5mC]; antisense) [compound 547751]
% inhibition [1]: 0%

548574 (eG*eG*kT*d[5mC]*dT*dA*dA*d[5mC]*dT*d[5mC]*dT*dA*dA*kG*kG*eG; antisense) [compound 548574]
% inhibition [5]: 0%

548098 (antisense eA*eG*kA*d[5mC]*dA*d[5mC]*d[5mC]*dA*dG*dG*dT*dT*dG*k[5mC]*kT*e[5mC]) [compound 548098]
% inhibition [4]: 0%

548540 (antisense eG*eA*k[5mC]*dA*d[5mC]*d[5mC]*dT*dG*d[5mC]*dT*dT*dG*dA*kT*kT*eA) [compound 548540]
% inhibition [5]: 7%

548346 (antisense eT*e[5mC]*k[5mC]*d[5mC]*d[5mC]*dA*dA*dT*dA*d[5mC]*dT*dT*dG*k[5mC]*kT*eG) [compound 548346]
% inhibition (Table 27, HepaRG cells, 1,000 nM antisense oligonucleotide, human PKK mRNA): 35%

547896 (eT*eA*kG*dG*d[5mC]*dA*dA*dT*dT*dG*dT*dT*d[5mC]*k[5mC]*kG*eG; antisense) [compound 547896]
% inhibition [10]: 95%

548178 (eG*eA*kG*dA*dT*d[5mC]*dT*d[5mC]*dA*dG*dT*dT*dG*k[5mC]*kG*eA; antisense) [compound 548178]
% inhibition [6]: 54%

548077 (eA*eT*kT*dT*dG*dT*dT*dA*d[5mC]*d[5mC]*dA*dA*dA*kG*kG*eA; antisense) [compound 548077]
% inhibition [4]: 51%

548626 (antisense eG*e[5mC]*kA*dG*dT*dA*dT*dG*dT*dT*d[5mC]*dA*dA*kT*k[5mC]*e[5mC]) [compound 548626]
% inhibition [3]: 36%

548219 (eG*eA*kA*dA*dT*d[5mC]*d[5mC]*dT*dG*dT*dG*d[5mC]*dA*kT*kA*eG; antisense) [compound 548219]
% inhibition [6]: 8%

548270 (antisense e[5mC]*eT*kG*d[5mC]*dT*dG*dG*dT*dT*dT*dT*dA*dG*kA*k[5mC]*e[5mC]) [compound 548270]
% inhibition [11]: 28%

548209 (e[5mC]*eA*kA*dT*d[5mC]*dT*d[5mC]*dT*dG*dG*dT*d[5mC]*dA*kA*kT*e[5mC]; antisense) [compound 548209]
% inhibition [6]: 57%

547815 (eA*eA*k[5mC]*dT*dT*dG*d[5mC]*dT*dG*dG*dA*dA*dG*kA*kA*eA; antisense) [compound 547815]
% inhibition [1]: 3%

548000 (antisense e[5mC]*e[5mC]*k[5mC]*dT*dT*dG*dT*dG*dT*d[5mC]*d[5mC]*d[5mC]*dA*kT*kA*e[5mC]) [compound 548000]
% inhibition [2]: 54%

547767 (antisense eT*eG*kG*dA*dG*dG*dT*dG*dA*dG*dT*d[5mC]*dT*k[5mC]*kT*eT) [compound 547767]
% inhibition [1]: 74%

548064 (eT*eG*kG*dT*dA*dT*dA*dA*dA*dT*dT*dG*dT*kG*k[5mC]*eT; antisense) [compound 548064]
% inhibition [2]: 54%

548072 (eT*eT*kT*d[5mC]*dT*d[5mC]*d[5mC]*dT*dT*d[5mC]*dG*dA*dG*kA*kA*eG; antisense) [compound 548072]
% inhibition [2]: 33%

547838 (e[5mC]*eT*kT*d[5mC]*dA*dA*dG*dG*dA*dA*dT*dG*dT*k[5mC]*k[5mC]*eA; antisense) [compound 547838]
% inhibition [1]: 45%

548578 (e[5mC]*eA*kT*dG*dG*d[5mC]*dT*dA*dT*dT*dG*d[5mC]*dT*kT*k[5mC]*e[5mC]; antisense) [compound 548578]
% inhibition [5]: 73%

547925 (eG*eG*kT*d[5mC]*d[5mC]*dG*dA*d[5mC]*dA*d[5mC]*dA*d[5mC]*dA*kA*kA*eA; antisense) [compound 547925]
% inhibition [8]: 16%

548221 (eA*e[5mC]*kT*d[5mC]*d[5mC]*dA*dG*d[5mC]*dA*dG*dA*dA*dA*kT*k[5mC]*e[5mC]; antisense) [compound 548221]
% inhibition [6]: 49%

548122 (antisense e[5mC]*eT*k[5mC]*dT*dG*dG*dA*d[5mC]*dT*dG*d[5mC]*dT*dT*k[5mC]*kT*e[5mC]) [compound 548122]
% inhibition [4]: 55%

548250 (antisense e[5mC]*eT*kT*dT*dG*dT*dG*dA*dT*dG*d[5mC]*dG*dA*kT*kT*eT) [compound 548250]
% inhibition [11]: 0%

548511 (antisense eA*eG*k[5mC]*dT*dA*dG*d[5mC]*dT*dG*dA*d[5mC]*d[5mC]*d[5mC]*k[5mC]*kA*eA) [compound 548511]
% inhibition [7]: 16%

548385 (eT*e[5mC]*k[5mC]*dT*dG*dG*dA*dG*dG*d[5mC]*dA*d[5mC]*d[5mC]*kA*kA*eT; antisense) [compound 548385]
% inhibition [9]: 0%

548656 (antisense eT*eT*kA*d[5mC]*dA*dA*d[5mC]*dA*dG*dA*d[5mC]*d[5mC]*d[5mC]*kA*kG*eG) [compound 548656]
% inhibition [3]: 35%

548647 (antisense e[5mC]*eA*k[5mC]*dG*dG*d[5mC]*dA*dA*dG*dT*d[5mC]*dG*d[5mC]*kG*kG*eG) [compound 548647]
% inhibition [3]: 39%

548079 (e[5mC]*e[5mC]*kT*dT*d[5mC]*dT*dT*dT*dA*dT*dA*dG*d[5mC]*k[5mC]*kA*eG; antisense) [compound 548079]
% inhibition [4]: 39%

548292 (eA*eG*kG*dA*d[5mC]*dA*d[5mC]*dT*dG*dT*dT*dT*d[5mC]*k[5mC]*kA*eG; antisense) [compound 548292]
% inhibition [11]: 38%

548191 (eG*eT*k[5mC]*dA*dA*d[5mC]*dA*dT*dA*dT*dT*d[5mC]*d[5mC]*kA*kT*eG; antisense) [compound 548191]
% inhibition [6]: 0%

547860 (antisense eT*e[5mC]*k[5mC]*dT*d[5mC]*dT*d[5mC]*dA*dT*dA*dT*d[5mC]*dA*kA*k[5mC]*eT) [compound 547860]
% inhibition [12]: 71% | % inhibition [10]: 70%

548185 (eA*eA*k[5mC]*dA*d[5mC]*dA*d[5mC]*dA*dG*dT*d[5mC]*dA*dT*kG*kG*eA; antisense) [compound 548185]
% inhibition [6]: 23%

547912 (eA*eT*k[5mC]*d[5mC]*dA*d[5mC]*dA*dT*d[5mC]*dT*dG*dA*dG*kA*kA*e[5mC]; antisense) [compound 547912]
% inhibition [12]: 23% | % inhibition [10]: 53%
